Experimental findings from patent publication US20230391796A1, “GLYCOSIDASE INHIBITORS AND USES THEREOF” (UNIVERSIDAD DE SEVILLA (US) -UNIVERSITY OF SEVILLE (US), priority 2020, published 2023) are described below.

Where a name gives a salt, the structure may show the parent alone.

Assay [1] has as its target T1, hOGA (Homo sapiens, UniProt O60502).
T1 sequence (O60502 1-916): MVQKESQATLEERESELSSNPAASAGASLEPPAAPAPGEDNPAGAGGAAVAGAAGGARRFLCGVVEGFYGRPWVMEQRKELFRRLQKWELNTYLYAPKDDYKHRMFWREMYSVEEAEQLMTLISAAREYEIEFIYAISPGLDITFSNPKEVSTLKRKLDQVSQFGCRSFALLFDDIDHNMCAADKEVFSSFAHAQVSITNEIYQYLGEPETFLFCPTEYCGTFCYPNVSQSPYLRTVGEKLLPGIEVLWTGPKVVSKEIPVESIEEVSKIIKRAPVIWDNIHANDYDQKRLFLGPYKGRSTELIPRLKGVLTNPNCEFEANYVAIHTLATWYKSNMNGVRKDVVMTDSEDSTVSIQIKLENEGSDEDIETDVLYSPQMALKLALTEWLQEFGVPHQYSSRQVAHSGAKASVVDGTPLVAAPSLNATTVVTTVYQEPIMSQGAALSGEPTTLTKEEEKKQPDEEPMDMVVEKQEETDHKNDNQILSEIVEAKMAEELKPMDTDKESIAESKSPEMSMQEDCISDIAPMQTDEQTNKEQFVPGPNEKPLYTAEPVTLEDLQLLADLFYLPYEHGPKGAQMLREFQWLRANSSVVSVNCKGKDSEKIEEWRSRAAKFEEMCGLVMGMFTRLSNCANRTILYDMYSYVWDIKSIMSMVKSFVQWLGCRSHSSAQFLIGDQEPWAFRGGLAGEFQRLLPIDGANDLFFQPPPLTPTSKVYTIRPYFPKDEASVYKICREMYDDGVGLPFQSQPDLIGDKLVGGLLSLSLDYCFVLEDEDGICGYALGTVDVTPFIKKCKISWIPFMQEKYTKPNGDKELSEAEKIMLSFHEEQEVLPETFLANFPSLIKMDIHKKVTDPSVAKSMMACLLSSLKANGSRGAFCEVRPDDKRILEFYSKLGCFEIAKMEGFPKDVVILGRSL
Kind of assay: Inhibition assay against hOGA, resorufin N-acetyl-β-D-glucosaminide fluorescence. The format is biochemical. To be noted: 0.2 nM hOGA, 25 μM substrate, pH 7.1; Morrison Ki. Here is the method:
Inhibition Assays Against hOGA
Km=25 μM was measured with these conditions. Inhibition assays were run at 0.2 nM [hOGA] in the same buffer, in the presence or absence of various concentrations of inhibitors and at a fixed substrate concentration of 25 μM and 1% DMSO. First, inhibitor was serially diluted to the desired range of concentrations in 2% DMSO buffer. Next, 50 μL of inhibitor solutions at various concentrations in 2% DMSO Buffer was added to 50 μL of 0.8 nM enzyme and allowed to incubate at 25° C. for 5 minutes. 100 uL of 50 μM and 1% DMSO substrate was then added and reaction mixture was immediately mixed and aliquoted in 45 μL triplicates to a CORNING 384 well black plate. Fluorescence signal was measured continuously for 20 minutes at 37° C. in a BioTek Neo 2 Plate reader set at excitation and emission wavelengths of 572 and 610 nm, respectively. Max reaction rates for all inhibitor concentrations were calculated within Gen5 BioTek reader software. % Activity was subsequently calculated for each inhibitor concentration against the max reaction rate of uninhibited hOGA. GraphPad Prism 2016 was used to approximate the Morrison Ki values for each inhibitor.

The target in assay [2] is β-N-acetylglucosaminidase (from bovine kidney). The assay is described as follows: Inhibition assay against commercial β-N-acetylglucosaminidase (bovine kidney), p-nitrophenyl N-acetyl-β-D-glucosaminide substrate. In kind it is biochemical. To be noted: pH 5.5, 37° C.; average of three determinations ± s.e.m.; NI = no inhibition detected at 200 μM; read-out: Bovine kidney Hex. Here is the method:
Inhibition Assays Against Commercial β-N-acetylglucosaminidases
Inhibition constant (Ki) values were determined by spectrophotometrically measuring the residual hydrolytic activities of the glycosidases against p-nitrophenyl N-acetyl-β-D-glucosaminide. […] Each assay was performed in phosphate-citrate buffer and the reactions were initiated by addition of the enzyme to a solution of the substrate in the absence or presence of various inhibitor concentrations. The mixture was incubated for 10-30 min at 37° C. and the reaction was quenched by addition of 1 M Na2CO3. Reaction times were appropriate to obtain 10-20% conversion of the substrate in order to achieve linear rates. The absorbance of the resulting mixture was determined at 405 nm. Approximate values of Ki were determined using a fixed concentration of substrate (around the Km value for the different glycosidases) and various inhibitor concentrations. Full Ki determinations and enzyme inhibition mode were determined from the slope of Lineweaver-Burk plots and double reciprocal analysis using a Microsoft Office Excel 2007 program.

For the compound `CCC(=O)N[C@H]1CN2/C(=N/Cc3ccccc3)SC[C@@H]2[C@@H](O)[C@@H]1O` [Compound 13, 2-Propanamido-5-N,6-S-(N′-benzyliminomethylidene)-1,2-dideoxy-6-thionojirimycin Hydrochloride], the Ki in assay [1] is 7.97 nM; in assay [2] it was above 200 µM.

Regarding `CCC(=O)N[C@H]1CN2/C(=N/Cc3cccc4ccccc34)SC[C@@H]2[C@@H](O)[C@@H]1O` [Compound 14, 2-Propionamido-5-N,6-S-(N′-1-naphthylmethyliminomethylidene)-1,2-dideoxy-6-thionojirimycin hydrochloride], the results for the Ki in assay [1] and in assay [2] were 0.701 nM and above 200 µM, respectively.

Turning to `CCC(=O)N[C@H]1CN2/C(=N/Cc3ccc4[nH]ccc4c3)SC[C@@H]2[C@@H](O)[C@@H]1O` [Compound 15, 2-Propionamido-5-N,6-S-(N′-5-indolylmethyliminomethylidene)-1,2-dideoxy-6-thionojirimycin hydrochloride], the results for the Ki in assay [1] and in assay [2] were 0.657 nM and above 200 µM, respectively.

As to `CC(C)C(=O)N[C@H]1CN2/C(=N/Cc3ccccc3)SC[C@@H]2[C@@H](O)[C@@H]1O` [Compound 16, 2-Isobutanamido-5-N,6-S-(N′-benzyliminomethylidene)-1,2-dideoxy-6-thionojirimycin Hydrochloride], the Ki in assay [1] is 888 nM; in assay [2], above 200 µM.

Take `CCCC(=O)N[C@H]1CN2/C(=N/Cc3ccccc3)SC[C@@H]2[C@@H](O)[C@@H]1O` [Compound 17, 2-Butanamido-5-N,6-S-(N′-benzyliminomethylidene)-1,2-dideoxy-6-thionojirimycin]: the Ki in assay [1] was 337 nM; in assay [2] it was above 200 µM.

For `CCNC(=S)N[C@H]1CN2/C(=N/Cc3ccccc3)SC[C@@H]2[C@@H](O)[C@@H]1O` [Compound 18, 2-Ethylthioureido-5-N,6-S-(N′-benzyliminomethylidene)-1,2-dideoxy-6-thionojirimycin], the Ki is 1060 nM in assay [1] and above 200 µM in assay [2].

Take `CCCNC(=S)N[C@H]1CN2/C(=N/Cc3ccccc3)SC[C@@H]2[C@@H](O)[C@@H]1O` [Compound 19, 2-Propylthioureido-5-N,6-S-(N′-benzyliminomethylidene)-1,2-dideoxy-6-thionojirimycin]: the Ki is 762 nM in assay [1] and above 200 µM in assay [2].
